In the test the test system is 7B2, PC1/3, PC2. Description: RT-PCR gene expression of insulin production related genes in 1.1E7 cells. The following applies: 1.1E7 cells, 10, 30, 45 mM glucose, 24 hours or 7 days, 5 mM ERT. The class given is cell-based, human. The procedure:
Cell culture: Human 1.1E7 beta cells were cultured in RPMI 1640 medium containing 10% fetal calf serum, 2 mM L-Glutamine and 1% penicillin/streptomycin. Cells were maintained at 37° C. in a 5% CO2 atmosphere.
Gene expression analysis: RNA was isolated from Qiazol suspended cells according to the manufacturer's protocol and quantified spectrophotometrically. Reverse transcription reaction was performed using 500 ng of RNA, which was reverse-transcribed into cDNA using iScript cDNA synthesis kit. Next, real time PCR was performed with a BioRad MyiQ iCycler Single Color RT-PCR detection system using Sensimix™Plus SYBR and Fluorescein, 5 μl diluted (10×) cDNA, and 0.3 μM primers in a total volume of 25 μl. PCR was conducted as follows: denaturation at 95° C. for 10 minutes, followed by 40 cycles of 95° C. for 15 seconds and 60° C. for 45 seconds. After PCR a melt curve (60-95° C.) was produced for product identification and purity. Actin was included as internal control. Data were analyzed using the MyIQ software system (Bio-Rad Laboratories BV, Veenendaal, the Netherlands) and were expressed as relative gene expression (fold change) using the 2^ΔΔCt method.
PC1/3 and PC2 are proprotein or prohormone covertases. […] 7B2 is a small neuroendocrine protein that is required for the production of active prohormone convertase 2 (PC2)

Take `OC[C@@H](O)[C@@H](O)CO` [ERT, meso-1,2,3,4-tetrahydroxybutane]: the “gene expression of 7B2, PC1/3 and PC2” value is listed as “improved the expression of genes involved in the conversion of (pre)proinsulin to insulin”.

The values are drawn from US20150104868A1, “Methods of Maintaining and Improving Biological Cell Function and Activity” (GARGILL INCORPORATED, priority 2012, published 2015).
